Laboratory results from the NIST ThermoML archive (doi:10.1016/j.fluid.2008.03.012).

Test: excess molar enthalpy (molar enthalpy of mixing); xn = mol fraction of the nth substance listed
Settings: Liquid, Flow calorimetry

CCOC(=O)CC(C)=O [ethyl 3-oxobutanoate] + CC(C)O
excess molar enthalpy [kcal/mol]
Settings | 298.15 K | 313.15 K | 328.15 K
100 kPa, x1 = 0.0997 | 0.236 | 0.266 | 0.283
100 kPa, x1 = 0.1998 | 0.369 | 0.422 | 0.454
100 kPa, x1 = 0.2999 | 0.446 | 0.518 | 0.556
100 kPa, x1 = 0.3499 | 0.472 | 0.547 | 0.586
100 kPa, x1 = 0.4003 | 0.488 | 0.565 | 0.605
100 kPa, x1 = 0.4496 | 0.496 | 0.574 | 0.612
100 kPa, x1 = 0.5003 | 0.498 | 0.573 | 0.61
100 kPa, x1 = 0.5494 | 0.491 | 0.562 | 0.597
100 kPa, x1 = 0.5995 | 0.476 | 0.543 | 0.573
100 kPa, x1 = 0.6505 | 0.452 | 0.513 | 0.538
100 kPa, x1 = 0.7008 | 0.42 | 0.473 | 0.494
100 kPa, x1 = 0.7999 | 0.328 | 0.359 | 0.373
100 kPa, x1 = 0.9006 | 0.185 | 0.198 | 0.203
10000 kPa, x1 = 0.0994 | 0.231 | 0.26 | 0.276
10000 kPa, x1 = 0.1993 | 0.358 | 0.409 | 0.447
10000 kPa, x1 = 0.2992 | 0.435 | 0.498 | 0.548
10000 kPa, x1 = 0.3491 | 0.459 | 0.527 | 0.578
10000 kPa, x1 = 0.3995 | 0.477 | 0.544 | 0.597
10000 kPa, x1 = 0.4488 | 0.485 | 0.553 | 0.604
10000 kPa, x1 = 0.4995 | 0.487 | 0.551 | 0.602
10000 kPa, x1 = 0.5486 | 0.482 | 0.541 | 0.59
10000 kPa, x1 = 0.5987 | 0.468 | 0.522 | 0.566
10000 kPa, x1 = 0.6497 | 0.447 | 0.491 | 0.532
10000 kPa, x1 = 0.7001 | 0.417 | 0.452 | 0.487
10000 kPa, x1 = 0.7994 | 0.326 | 0.342 | 0.367
10000 kPa, x1 = 0.9003 | 0.184 | 0.187 | 0.199

CCOC(=O)CC(C)=O [ethyl 3-oxobutanoate] + CCCO
excess molar enthalpy [kcal/mol]
Settings | 298.15 K | 313.15 K | 328.15 K
100 kPa, x1 = 0.1001 | 0.208 | 0.237 | 0.256
100 kPa, x1 = 0.1998 | 0.324 | 0.378 | 0.414
100 kPa, x1 = 0.3003 | 0.396 | 0.464 | 0.509
100 kPa, x1 = 0.3502 | 0.42 | 0.493 | 0.539
100 kPa, x1 = 0.3994 | 0.436 | 0.512 | 0.558
100 kPa, x1 = 0.4501 | 0.446 | 0.522 | 0.565
100 kPa, x1 = 0.4997 | 0.45 | 0.524 | 0.564
100 kPa, x1 = 0.5505 | 0.446 | 0.517 | 0.553
100 kPa, x1 = 0.5997 | 0.435 | 0.501 | 0.532
100 kPa, x1 = 0.6497 | 0.417 | 0.475 | 0.504
100 kPa, x1 = 0.7007 | 0.39 | 0.441 | 0.462
100 kPa, x1 = 0.7996 | 0.307 | 0.341 | 0.351
100 kPa, x1 = 0.9004 | 0.175 | 0.187 | 0.193
10000 kPa, x1 = 0.1003 | 0.204 | 0.229 | 0.254
10000 kPa, x1 = 0.2001 | 0.318 | 0.364 | 0.407
10000 kPa, x1 = 0.3007 | 0.389 | 0.45 | 0.503
10000 kPa, x1 = 0.3506 | 0.412 | 0.474 | 0.533
10000 kPa, x1 = 0.3998 | 0.427 | 0.492 | 0.552
10000 kPa, x1 = 0.4505 | 0.436 | 0.502 | 0.563
10000 kPa, x1 = 0.5001 | 0.439 | 0.503 | 0.563
10000 kPa, x1 = 0.5509 | 0.435 | 0.498 | 0.552
10000 kPa, x1 = 0.6 | 0.425 | 0.483 | 0.53
10000 kPa, x1 = 0.6501 | 0.407 | 0.457 | 0.502
10000 kPa, x1 = 0.701 | 0.38 | 0.421 | 0.461
10000 kPa, x1 = 0.7999 | 0.3 | 0.322 | 0.35
10000 kPa, x1 = 0.9005 | 0.17 | 0.179 | 0.19
